Measurements from US9763954B2, “Therapeutical uses of eslicarbazepine” (BIAL-PORTELA & CA, S.A., priority 2007, dated 2017).
Entries after “also recorded” stand apart in the source; their conditions may differ.

Columns and labels:
[1] = test system: partial epilepsy refractory patients; details: cited from earlier work
[2] = target: P-glycoprotein (P-gp) (Mus musculus, UniProt P21447); experiment: Brain/plasma ratio in mice pre-treated with the P-gp inhibitor verapamil; details: for substrate for P-gp: concluded from verapamil pre-treatment; for effect of verapamil on brain/plasma ratio: verapamil 20 mg/kg 30 min before 100 mg/kg intraperitoneally, FIG. 2
Method: (§2) CD-1 mice weighing 30-35 g were maintained under controlled environmental conditions (23-24° C.) for at least 5 days before the experiment. […] In the second series of experiments, mice pre-treated with vehicle, verapamil (20 mg/kg) or probenecid (100 mg/kg) were given 30 min later intraperitoneally S-licarbazepine or R-licarbazepine (100 mg/kg). […] After collection of blood, plasma was obtained by centrifugation. Brain samples were homogenised in phosphate buffer (pH 5; 4 mL/g) followed by centrifugation and collection of the supernatant. Plasma and the tissue supernatant were stored frozen until analysis. The assay of S-licarbazepine and R-licarbazepine was performed using a HPLC-UV or LC-MS method following solid phase extraction.

[3] = test system: Multiple Resistant Proteins (MRP); experiment: Brain/plasma ratio in mice pre-treated with the MRP inhibitor probenecid; details: for substrate for MRP: concluded from probenecid pre-treatment
Method: as §2

[4] = test system: P-gp or MRP; details: cited from earlier work; for category of P-gp or MRP substrates: AEDs listed in the discussion
[5] = test system: NMRI mice; experiment: Formalin paw test; assay type: in vivo; details: 100 mg/kg p.o., 120 minutes before the test; FIG. 6
Method: The method, which detects analgesic/anti-inflammatory activity, follows that described by Wheeler-Aceto et al (Wheeler-Aceto et al., 1991). NMRI mice were given an intraplantar injection of 5% formalin (25 μl) into the posterior left paw. […] The time spent licking was counted for 15 minutes, beginning 15 minutes after injection of formalin. 10 mice were studied per group. The test was performed blind. S-Licarbazepine and R-licarbazepine were tested at the dose of 100 mg/kg p.o., administered 120 minutes before the test (i.e. […]), and compared with a vehicle control group in each experiment.

[6] = Plasma pharmacokinetics after oral administration to CD-1 mice; assay type: in vivo
Excerpt: (§1) The following pharmacokinetic parameters for S-licarbazepine and R-licarbazepine were derived by non-compartmental analysis from the concentration versus time profiles: maximum observed plasma drug concentration (Cmax), time at which the Cmax occurred (tmax), area under the plasma concentration versus time curve (AUC) from time zero to the last sampling time at which concentrations were at or above the limit of quantification (AUC0-t) and AUC from time zero to infinity (AUC0-∞), elimination half-life (t1/2) and mean residence time (MRT). The pharmacokinetic parameters were determined using WinNonlin (version 4.0). Summary statistics of all data for each treatment and scheduled sampling times were reported, as appropriate, using the geometric mean, arithmetic mean, standard deviation (SD), coefficient of variation (CV), median, minimum and maximum. The statistical package SAS Version 8.2 or higher (SAS Institute, Cary, USA) was used in all computations when considered appropriate.

[7] = Brain pharmacokinetics (brain access) after oral administration to CD-1 mice; assay type: in vivo; details: for presence of the opposite enantiomer in brain: analyte found after administration of the other enantiomer
Excerpt: as §1

[8] = test system: NMRI mice; experiment: Corneal kindling procedure (acquisition of kindling); assay type: in vivo
Method: Vehicle (30% DMSO in distilled water) or the compounds dissolved in 30% DMSO were administered intraperitoneally twice daily. NMRI mice were stimulated twice daily (interstimulation interval 6-7 h) on twelve consecutive days. The electrostimulations with current intensities of 3 mA and duration of 3 s (pulse frequency 50 Hz) were applied via corneally placed saline-soaked copper electrodes. A stimulator was used to deliver a constant current regardless of the impedance of the test object. Seizure severity was ranked according to a modified system of Racine (Racine, 1972): 1, mild facial clonus and eye blinking; 2, severe facial clonus, head nodding, chewing; 3, unilateral or alternating forelimb clonus; 4, bilateral forelimb clonus with rearing […]; 5, bilateral forelimb clonus with rearing and falling; 6, tonic fore- and/or hindlimb extension.

[9] = test system: patients with drug-resistant epilepsy; details: six months after initiation of therapy; 120 patients who had tried at least 3-4 other AEDs; cited from earlier work
[10] = eslicarbazepine acetate 100 mg/kg, i.p., FIG. 3
[11] = plasma, after 350 mg/kg R-licarbazepine oral, CD-1 mice
[12] = brain, after 350 mg/kg R-licarbazepine oral, CD-1 mice
[13] = 100 mg/kg twice daily, twelve days

P-glycoprotein (P-gp), sequence (P21447 whole entry): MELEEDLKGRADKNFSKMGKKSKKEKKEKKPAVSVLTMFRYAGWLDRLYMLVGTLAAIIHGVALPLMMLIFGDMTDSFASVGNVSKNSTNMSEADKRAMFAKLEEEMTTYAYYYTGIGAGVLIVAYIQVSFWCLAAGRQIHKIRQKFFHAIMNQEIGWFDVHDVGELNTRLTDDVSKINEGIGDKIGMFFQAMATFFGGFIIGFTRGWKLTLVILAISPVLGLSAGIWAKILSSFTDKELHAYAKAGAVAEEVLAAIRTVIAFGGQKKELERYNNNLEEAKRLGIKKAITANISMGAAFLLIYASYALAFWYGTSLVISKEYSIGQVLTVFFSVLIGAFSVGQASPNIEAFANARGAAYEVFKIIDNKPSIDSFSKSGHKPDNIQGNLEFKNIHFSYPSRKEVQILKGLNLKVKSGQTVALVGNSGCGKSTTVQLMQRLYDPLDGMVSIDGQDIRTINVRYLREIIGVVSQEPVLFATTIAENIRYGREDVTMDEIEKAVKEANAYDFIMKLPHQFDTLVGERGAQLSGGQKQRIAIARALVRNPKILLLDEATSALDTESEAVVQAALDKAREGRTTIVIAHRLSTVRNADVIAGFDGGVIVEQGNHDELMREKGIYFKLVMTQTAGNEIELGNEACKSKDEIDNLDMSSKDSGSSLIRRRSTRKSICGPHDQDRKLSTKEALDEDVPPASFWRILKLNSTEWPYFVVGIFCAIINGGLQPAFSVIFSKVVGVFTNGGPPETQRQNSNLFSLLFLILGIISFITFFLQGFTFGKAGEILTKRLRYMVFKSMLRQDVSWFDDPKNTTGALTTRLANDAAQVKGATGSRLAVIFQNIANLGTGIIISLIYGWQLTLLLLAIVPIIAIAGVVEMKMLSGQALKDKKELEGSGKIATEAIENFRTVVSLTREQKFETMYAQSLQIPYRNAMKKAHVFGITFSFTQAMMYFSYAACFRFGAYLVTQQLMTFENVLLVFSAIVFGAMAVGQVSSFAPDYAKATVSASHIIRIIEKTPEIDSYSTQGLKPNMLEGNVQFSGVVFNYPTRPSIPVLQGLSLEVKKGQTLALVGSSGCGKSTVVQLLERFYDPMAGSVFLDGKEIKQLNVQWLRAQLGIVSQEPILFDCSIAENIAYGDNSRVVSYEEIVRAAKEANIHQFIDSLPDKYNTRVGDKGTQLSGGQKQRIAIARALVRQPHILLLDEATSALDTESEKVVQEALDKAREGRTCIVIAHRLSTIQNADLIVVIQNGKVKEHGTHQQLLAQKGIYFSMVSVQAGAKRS

For `CC(=O)O[C@H]1Cc2ccccc2N(C(N)=O)c2ccccc21` [eslicarbazepine acetate, (S)-(−)-10-acetoxy-10,11-dihydro-5H-dibenz/b,f/azepine-5-carboxamide], the “patients that became seizure free” value ([1]; 1 month after initiation of therapy) is given as “approximately 25%”, the “efficacy in partial epilepsy refractory patients” value ([1]; administered once-daily) is given as “very efficacious” and the “effect of verapamil on S-licarbazepine brain/plasma ratio after eslicarbazepine acetate” value [2, 10] is given as “failed to affect”. For the same compound, the “effect of probenecid on S-licarbazepine brain/plasma ratio after eslicarbazepine acetate” value [3, 10] was “failed to affect”.

For `NC(=O)N1c2ccccc2CC(=O)c2ccccc21` [oxcarbazepine], the “category of P-gp or MRP substrates” value [4] is given as “P-gp or MRP substrates”.

In the case of `NC(=O)N1c2ccccc2C=Cc2ccccc21` [carbamazepine], the “category of P-gp or MRP substrates” value [4] is given as “P-gp or MRP substrates”.

In the case of `NCC1(CC(=O)O)CCCCC1` [Gabapentin], the “licking time versus vehicle controls” value [5] is reported as “significantly (p<0.05) decreased”.

For `NC(=O)OCC(COC(N)=O)c1ccccc1` [felbamate], the “category of P-gp or MRP substrates” value [4] is given as “P-gp or MRP substrates”.

With `NC(=O)N1c2ccccc2C[C@@H](O)c2ccccc21` [R-licarbazepine] the “absorption after oral administration” value ([6]; oral, CD-1 mice) was “rapidly absorbed”, the “AUC0-∞” value [6, 11] was 231.716 µg·h/mL and the AUC(0-t) [6, 11] was 203.705 µg·h/mL. The Cmax [6, 11] was 69946 ng/mL, the MRT [6, 11] was 10.12 h and the tmax [6, 11] was 0.25 h. The t½ [6, 11] was 8.11 h, the “elimination half-life (t1/2)” value ([6]; plasma, approximate value stated for both enantiomers) was “≈ 8 h” and the “presence of the opposite enantiomer in brain” value [7] was “almost negligible”. For the same compound, the “AUC0-∞” value [7, 12] was 60.037 µg·h/mL, the AUC(0-t) [7, 12] was 51.516 µg·h/mL and the Cmax [7, 12] was 8533 ng/mL. The MRT [7, 12] was 11.34 h, the tmax [7, 12] was 0.75 h and the t½ [7, 12] was 7.91 h. The “effect on acquisition of kindling” value ([8]; 100 mg/kg twice daily intraperitoneally, twelve days) was “no inhibitory effect”, the “adverse effects during the course of the experiment” value [8, 13] was “no adverse effects were obvious” and the “mean seizure severity versus vehicle control group” value ([8]; 100 mg/kg twice daily, S-lic: all sessions of first three days, R-lic: all sessions except afternoon of day 8) was “no significant differences”. For the same compound, the “number of stimulations necessary to induce a seizure with a given severity score” value ([8]; 100 mg/kg twice daily, score 3 and 4 (S-lic), score 3, 4, 5 and 6 (R-lic), versus control) was “did not differ”, the “animals that had reached the kindling criterion (at least one generalized seizure, score 4-6)” value ([8]; at termination of treatment, day 12) was “all of the treated animals” and the “licking time versus vehicle controls” value [5] was “did not attain statistical significance”. For the same compound, the “substrate for P-gp” value [2] was “is a substrate”, the “effect of verapamil on brain/plasma ratio” value [2] was “markedly increased; also recorded: equals that of S-licarbazepine in vehicle-treated animals” and the “substrate for MRP” value [3] was “not for MRP”.

In the case of `CCC1(c2ccccc2)C(=O)NC(=O)NC1=O` [phenobarbital], the “category of P-gp or MRP substrates” value [4] is given as “P-gp or MRP substrates”.

In the case of `CC[C@@H](C(N)=O)N1CCCC1=O` [Levetiracetam], the patients seizure-free [9] is listed as 32% and the “substrate for either P-gp or MRP1/2” value ([4]; verapamil and probenecid did not increase brain penetration) is listed as “not to be a substrate”.

For `O=C1NC(=O)C(c2ccccc2)(c2ccccc2)N1` [phenytoin], the “category of P-gp or MRP substrates” value [4] is listed as “P-gp or MRP substrates”.

With `NC(=O)N1c2ccccc2C[C@H](O)c2ccccc21` [S-licarbazepine, (S)-(+)-10,11-dihydro-10-hydroxy-5H dibenz/b,f/azepine-5-carboxamide] the MRT ([6]; CD-1, mouse, oral, 350 mg/kg, plasma, approximate range stated for both enantiomers, read-out: mean residence time (MRT)) was 10 to 12 h, the half-life ([6]; CD-1, mouse, oral, 350 mg/kg, plasma, approximate value stated for both enantiomers, read-out: elimination half-life (t1/2) (converted)) was roughly 8 h and the AUC(0-t) ([6]; CD-1, mouse, plasma, po, 350 mg/kg, plasma, after 350 mg/kg R-licarbazepine oral, CD-1 mice, read-out: AUC0-t) was 4.58 µg·h/mL. For the same compound, the Cmax ([6]; CD-1, mouse, plasma, po, 350 mg/kg, plasma, after 350 mg/kg R-licarbazepine oral, CD-1 mice, read-out: Cmax) was 1020 ng/mL, the AUC(0-t) ([6]; CD-1, mouse, plasma, po, 350 mg/kg, plasma, after 350 mg/kg S-licarbazepine oral, CD-1 mice, read-out: AUC0-t) was 187 µg·h/mL and the Cmax ([6]; CD-1, mouse, plasma, po, 350 mg/kg, plasma, after 350 mg/kg S-licarbazepine oral, CD-1 mice, read-out: Cmax) was 41300 ng/mL. For the same compound, the “amount detectable in plasma” value ([6]; S-licarbazepine in plasma after administration of R-licarbazepine) was “small amounts”, the AUC(0-inf) ([6]; mouse, plasma, after 350 mg/kg S-licarbazepine oral, CD-1 mice) was 258 µg·h/mL and the MRT ([6]; mouse, plasma, after 350 mg/kg S-licarbazepine oral, CD-1 mice, read-out: MRT) was 11.7 h. For the same compound, the tmax ([6]; mouse, plasma, after 350 mg/kg S-licarbazepine oral, CD-1 mice, read-out: tmax) was 0.25 h, the half-life ([6]; mouse, plasma, after 350 mg/kg S-licarbazepine oral, CD-1 mice, read-out: t½ (converted)) was 7.93 h and the “absorption after oral administration” value ([6]; oral, CD-1 mice) was “rapidly absorbed”. For the same compound, the “brain/plasma ratio (considering either Cmax or AUC)” value ([7]; FIG. 1, compared with R-licarbazepine) was “considerably greater”, the “presence of the opposite enantiomer in brain” value [7] was “almost negligible” and the “AUCbrain(S-Licarbazepine)/AUCbrain(R-Licarbazepine)” value ([7]; brain exposure ratio, each enantiomer given orally 350 mg/kg) was 1.9. It also gave an AUC(0-inf) ([7]; mouse, brain, after 350 mg/kg S-licarbazepine oral, CD-1 mice) of 111 µg·h/mL, an AUC(0-t) ([7]; mouse, brain, after 350 mg/kg S-licarbazepine oral, CD-1 mice, read-out: AUC0-t) of 109 µg·h/mL and a Cmax ([7]; mouse, brain, after 350 mg/kg S-licarbazepine oral, CD-1 mice, read-out: Cmax) of 12300 ng/mL. The MRT ([7]; mouse, brain, after 350 mg/kg S-licarbazepine oral, CD-1 mice, read-out: MRT) was 7.84 h, the tmax ([7]; mouse, brain, after 350 mg/kg S-licarbazepine oral, CD-1 mice, read-out: tmax) was 1 h and the half-life ([7]; mouse, brain, after 350 mg/kg S-licarbazepine oral, CD-1 mice, read-out: t½ (converted)) was 4.87 h. The “adverse effects during the course of the experiment” value [8, 13] was “no adverse effects were obvious”, the “substrate for P-gp” value [2] was “not a substrate” and the “effect of verapamil on brain/plasma ratio” value [2] was “failed to affect”. For the same compound, the “substrate for MRP” value [3] was “not a substrate” and the “effect of probenecid on brain/plasma ratio” value ([3]; probenecid 100 mg/kg 30 min before 100 mg/kg intraperitoneally, FIG. 2) was “failed to affect”.
